The source of these data is patent publication US9993487B2 (Universite de Liege, priority 2014, dated 2018).

The subject of data set [1] is IL13. The data set can be described thus: OVA model: IL13 ELISA in lung protein extracts. The data set is classed as in vivo, BALB/c mice. Conditions: FIG. 3. As for the experimental part:
In order to study modulation of airway inflammation, BALB/c mice of about 6 to about 8 weeks old are sensitized by intraperitoneal injection of about 10 μg ovalbumin (OVA) (Sigma Aldrich, Schnelldorf, Germany) emulsified in aluminum hydroxide (AlumInject; Perbio, Erembodegem, Belgium) on days 0 (DO) and 7 (D7). Mice are subsequently exposed to allergens by daily inhalation of an aerosol of OVA about 1%, for about 30 minutes, generated by ultrasonic nebulizer (Devilbiss 2000), from day 21 to day 25. Mice are subjected to about 50 μl intra-nasal instillations from day 18 to day 24 and are sacrificed on day 26, as previously reported by Cataldo et al.: Am. J. Pathol. 161 (2):491-498 (2002), which is incorporated herein in its entirety by reference. Placebo mice are intra-nasal injected with PBS. As stated above, the left lung is excised and frozen immediately at about −80° C. and then disrupted in liquid N2 by using a Mikro-Dismembrator (Braun Biotech International, Gmbh Melsungen, Germany) to form a homogenized powder. […] IL13 levels are measured in non-pooled lung protein samples by ELISA (duoset kit, R&D Systems, Abingdon, United Kingdom) following manufacturer's instructions. […]

In data set [2] the test system is Cigarette smoke-exposed mice. Description: Cigarette smoke exposure model: BALF neutrophils. The data set is classed as in vivo, C57BL/6 mice. Conditions: budesonide alone about 500 μg/ml. As for the experimental part: BALF supernatant is collected for protein assessment while cells are used for differential cell counts. Differential cell counts based on morphologic criteria are carried out on cytocentrifuged preparations after staining with haematoxylin-eosin (Diff-Quick, Dade, Belgium). Cells are recovered by gentle manual aspiration. After centrifugation of bronchoalveolar fluid (BALF) (about 1200 rpm for about 10 minutes, at about 4° C.), the supernatant is frozen at about −80° C. for protein assessment and the cell pellet is re-suspended in about 1 ml PBS-EDTA about 0.05 mM. The differential cell counts are performed on cytocentrifuged preparations (Cytospin) after staining with Diff-Quick (Dade, Belgium).
C57BL/6 mice are exposed to 10 cigarettes 5 days per week during 6 weeks using the Inexpose® system (Scireq, Montreal, Canada). Mice are treated by an about 50 μl intra-nasal injection 5 days per week during 6 weeks. Mice are sacrificed on day 43. Placebo mices also called sham exposed mices are injected with PBS.
Bronchoalveolar lavage fluid (BALF) analysis is the same as previously described in Example 3 (model of airway obstruction and inflammation).
Results of inflammatory cells in bronchoalveolar lavage fluid number were expressed as mean +/− SEM and the comparison between the groups is performed using Mann-Whitney test. Tests are performed using GraphPad Prism 5. […]

The nature of data set [3]: Stability of betamethasone dipropionate under autoclave. Type of data set: physicochemical.

Consider `CCCC1O[C@@H]2C[C@H]3[C@@H]4CCC5=CC(=O)C=C[C@]5(C)[C@H]4[C@@H](O)C[C@]3(C)[C@]2(C(=O)CO)O1` (stereo partly drawn) [budesonide, 16,17-(butylidenebis(oxy))-11,21-dihydroxy-, (11-β3,16-a)-pregna-1,4-diene-3,20-dione], for which the “IL13 levels in lung tissue after allergen exposure” value in data set [1] (budesonide about 100 μg/ml compared to budesonide about 100 μg/ml—cyclodextrin about 10 mM) is “higher IL13 levels”; in data set [1] (budesonide about 250 μg/ml compared to complex budesonide about 250 μg/ml—cyclodextrin about 10 mM) it was “higher levels of IL13”. Moreover, in data set [2], the “inflammation level in BALF of treated mice” value is reported as “significantly not efficient enough”. Also, the “Percentage of neutrophils (+/−SEM) in BALF, Neutrophils (%)” value in data set [2] (about 50 μl intra-nasal 5 days per week during 6 weeks) is “about 9.64%”.
On to `CCC(=O)OCC(=O)[C@@]1(OC(=O)CC)[C@@H](C)C[C@H]2[C@@H]3CCC4=CC(=O)C=C[C@]4(C)[C@@]3(F)[C@@H](O)C[C@@]21C` [Betamethasone Dipropionate], for which, in data set [3], the stability under autoclave entry is listed as “degrades under autoclave”.
